Where “and” joins values, the source holds several entries; their conditions need not be identical. Equal entries are not always repeated. Where two headings read alike, the source gives them in different places. Where only a bound is given, the exact number is not on record here.

These results are taken from paper PMC10564737, “Structure-based design of a phosphotyrosine-masked covalent ligand targeting the E3 ligase SOCS2” (Nature Communications, 2023).

In assay [1] the target is T1, SOCS2 (SBC2) (Homo sapiens, UniProt O14508).
T1 construct: SOCS2 (amino acids 32–198); His6 (N, cleaved yes); made in house; host or cells: E. coli BL21(DE3)
T1 sequence (O14508 32-198): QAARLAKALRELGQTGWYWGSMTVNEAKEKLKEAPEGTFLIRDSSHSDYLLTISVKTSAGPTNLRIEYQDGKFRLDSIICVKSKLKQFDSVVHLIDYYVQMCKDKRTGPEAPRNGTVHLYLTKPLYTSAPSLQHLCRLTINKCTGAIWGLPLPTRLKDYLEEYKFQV
T1 sequence (Q15369 17-112, further chain): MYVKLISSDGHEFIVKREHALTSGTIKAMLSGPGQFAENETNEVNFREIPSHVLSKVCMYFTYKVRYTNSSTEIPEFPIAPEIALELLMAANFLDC
T1 sequence (Q15370 1-104, further chain): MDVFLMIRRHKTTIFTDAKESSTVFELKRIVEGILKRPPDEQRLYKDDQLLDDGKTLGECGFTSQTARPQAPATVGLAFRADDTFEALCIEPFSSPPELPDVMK
The assay is described as follows: Intact ESI-MS of recombinant protein, covalent modification. Type of assay: biochemical. The procedure: SBC2 protein (40 µM), SBC2 C111S, SBC4, SBC6, or CISH were incubated with an equimolar concentration of MN551 in 50 mM Tris, pH 8.0, 50 mM NaCl, 1 mM TCEP. At defined time points 20 µl samples were removed and the protein precipitated by the addition of 80 µl methanol. The precipitated protein was pelleted by centrifugation, washed with 500 µl methanol, and resuspended in an aqueous solution of 15% acetonitrile and 1% TFA. Samples were separated by HPLC on a C3 column using a 10–75% gradient of acetonitrile and analyzed using an Agilent 6130 quadrupole MS. Spectra were deconvoluted and integrated using Agilent LC/MSD ChemStation.

Assay [2] addresses T2, SBC2 (Homo sapiens, UniProt O14508).
T2 construct: SOCS2 (amino acids 32–198); His6 (N, cleaved yes); made in house; host or cells: E. coli BL21(DE3)
Nature of the assay: Differential scanning fluorimetry (DSF). It is filed as binding. The conditions noted are these: 5 µM SBC2 + 100 µM MN551. Here is the method: DSF experiments were performed on a Biorad CFX96 RT-PCR machine. […] of SBC2 were incubated with […] MN551 (2 % DMSO) or DMSO control in 50 mM Tris, pH 8.0, 50 mM NaCl and 6.6 × SYPRO Orange. The temperature was ramped up in 1 °C steps between 25 and 95 °C with 30 s incubation at each step. Melting curves were analyzed by determining the minimum of the first derivative using the Biorad CFX Manager software.
On the technique in general: In DSF a fluorescence change marks the thermal transition of the protein.

Assay [3] has as its target T3, HiBiT-SOCS2 fusion in HeLa cells (Homo sapiens, UniProt O14508).
T3 construct: encoding SOCS2 (32–198) in pBiT3.1-N expression vector; expressed in transfected cells; host or cells: HeLa
Nature of the assay: Split-NanoLuc CETSA, permeabilised cell format. It is filed as cell-based. Here is the method: One of the challenges with small-molecule binders displaying on-target activity with recombinant proteins, is to translate their utility to a cellular context. […] One of the advantages of CETSA is that target engagement can be monitored without the need for the development of a cell-permeable tracer molecule.
To test the cellular activity of MN551, we treated HeLa cells with 50 μM MN551 for 20 h and performed CETSA in a live-cell mode. We observed a small Tagg shift of 2 °C in live mode, which increased to 3–4 °C Tagg shift in the permeabilised format (Fig. 4d). We postulate that this observation could likely be a result of the low cellular permeability of MN551 owing to its negatively charged phosphate group.
N-terminal HiBiT-SOCS2 fusion was generated by encoding SOCS2 (32–198) in pBiT3.1-N expression vector (Promega). The transfection and target engagement assay were performed by modifying a NanoLuc target engagement protocol (Promega) with some small modifications. Briefly, HiBiT-SOCS2 fusion construct was transfected into HeLa cells using FuGENE HD (Promega) according to the manufacturer’s protocol. HiBiT-SOCS2 fusion construct was diluted into Transfection Carrier DNA (Promega) at a mass ratio of 1:100 or 1:10 for permeabilised and live-cell CETSA respectively. FuGENE HD was added at a ratio of 1:3 (μg DNA: μL FuGENE HD). 1 part (vol) of FuGENE HD complexes thus formed were combined with 20 parts (vol) of HeLa cells suspended at a density of 2 × 10^5 cells/mL, followed by incubation in a humidified, 37 °C + 5% CO2 incubator. After 20 h of incubation HeLa cells were detached and resuspended at a density of 2.5 × 10^5 cells/mL in Opti-MEM media without serum or phenol red but supplemented with protease inhibitor cocktail (Roche). […] Luminescence was recorded with GloMax Discover Microplate Reader (Promega). To generate apparent Tagg curves, the data is first converted to percent stabilized by relating the observed luminescence to the luminescence of the lowest temperature (40 °C) for that given sample. […]

T3 sequence (O14508 32-198): as the sequence (O14508 32-198) above
T3 sequence (Q15370 whole entry, further chain, the tested form may be a part): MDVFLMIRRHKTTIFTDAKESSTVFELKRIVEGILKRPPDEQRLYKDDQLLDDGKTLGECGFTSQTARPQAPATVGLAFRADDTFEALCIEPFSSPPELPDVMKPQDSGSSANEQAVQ
T3 sequence (Q15369 whole entry, further chain, the tested form may be a part): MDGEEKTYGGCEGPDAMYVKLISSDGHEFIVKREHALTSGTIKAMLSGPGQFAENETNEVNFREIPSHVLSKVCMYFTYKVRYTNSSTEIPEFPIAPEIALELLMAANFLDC
T2 sequence (O14508 32-198): as the sequence (O14508 32-198) above
T2 sequence (Q15370 1-104 partner limits assumed): as the sequence (Q15370 1-104, further chain) above
T2 sequence (Q15369 17-112 partner limits assumed): as the sequence (Q15369 17-112, further chain) above

Turning to `O=C(CCl)Nc1cccc(CNC(=O)[C@H](Cc2ccc(OP(=O)(O)O)cc2)NC(=O)Cc2ccc(F)cc2)c1` [MN551], in assay [1] (SBC2 (40 µM) treated with MN551 (40 µM)), the “covalent adduct observed by intact mass analysis” value is 1:1 covalent SOCS2:MN551 adduct and single covalent adduct. The “time to stoichiometric occupancy at Cys111” value in assay [1] (recombinant SOCS2, equimolar compound) is recorded as at most 2 h. Further, the “ΔTm, shift in the melting temperature of SBC2” value in assay [2] came to 6 °C. Moreover, the EC50 in assay [3] (MN551 CETSA dose response, Mean, read-out: EC50) is 1010 nM; in assay [3] (MN551 CETSA dose response, single replicates, read-out: EC50, individual replicates n1-n2) it was 755 nM and 1260 nM; in assay [3] (permeabilised CETSA, 1 hr, mean ± SEM, n = 2, read-out: EC50 of Tagg shift) it was 1000 ± 250 nM.
